The values below come from ChEMBL document CHEMBL1127883, “Increased antiviral activity of HIV protease inhibitors of the difluorostatone type bearing (R)-valinol derivatives as novel c-termini” (Bioorg Med Chem Lett, 1994).

The target of assay [1] is Human immunodeficiency virus type 1 protease (Human immunodeficiency virus 1) (UniProt Q72874). In words: Concentration that inhibits cellular growth of MT-4 cells acutely infected with HIV-1 RFstrain by 50%. The assay is classed as functional, cell-based. The settings on record: MT4.
Assay [2] deals with T1, Human immunodeficiency virus type 1 protease (Human immunodeficiency virus 1, UniProt Q72874). Kind of assay: Inhibitory activity was determined against HIV-1 protease.
Assay [3] in a line: Cytotoxic activity was determined against HIV-1 infected MT-4 cells. The assay is classed as functional, cell-based. The settings on record: MT4.
Assay [4] concerns H9. Kind of assay: Antiviral activity against HIV-1HIB in H9 cell line. The assay is classed as functional. The settings on record: Homo sapiens, read-out: ED50 (the source's name).
For assay [5], the system named is Human immunodeficiency virus 1. In words: Antiviral activity against HIV-1CCL in PBMC 2 cell line; Out of 14 days. The assay is classed as functional. The settings on record: Human immunodeficiency virus 1, PBMC, 336 h; read-out: ED50 (the source's name).
For assay [6], the system named is CCRF-CEM. In words: Antiviral activity against HIV-1 HIB in CEM cell line. The settings on record: Homo sapiens, read-out: ED50 (the source's name). In kind it is functional.
The test system of assay [7] is H938 cell line. Kind of assay: Antiviral activity against HIV-1CCl protease in H938 cell line. In kind it is functional. To be noted: Homo sapiens, read-out: ED50 (the source's name).
In assay [8] the test system is C8166. In words: Antiviral activity against HIV-1 RF in […] cell line. The settings on record: Homo sapiens, read-out: ED50 (the source's name). The assay is classed as functional.
For assay [9], the system named is C8166. In words: Antiviral activity against HIV-2red in C8166 cell line. The assay is classed as functional. To be noted: Homo sapiens, read-out: ED50 (the source's name).
For assay [10], the system named is Human immunodeficiency virus 1. Kind of assay: Antiviral activity against HIV-1CC in PBMC cell line; Out of 7 days. The assay is classed as functional. To be noted: Human immunodeficiency virus 1, PBMC, 168 h; read-out: ED50 (the source's name).
The test system of assay [11] is MT4. In words: Cytotoxic activity against HIV-1 in MT-4 cell line. In kind it is functional. To be noted: Homo sapiens, read-out: CD50 (the source's name).
For assay [12], the system named is Human immunodeficiency virus 1. Kind of assay: Antiviral activity against HIV-1 108/F in PBMC 3 cell line. The settings on record: Human immunodeficiency virus 1, PBMC; read-out: ED50 (the source's name). In kind it is functional.
The target in assay [13] is T1, Human immunodeficiency virus type 1 protease. Kind of assay: Inhibitory activity against HIV-1 protease.
Assay [14] deals with MT4. Kind of assay: Antiviral activity against HIV-1 RF in MT-4 cell line. The assay is classed as functional. To be noted: Homo sapiens, read-out: ED50 (the source's name).
The test system of assay [15] is C8166. In words: Antiviral activity against SIV-mac251 in C8166 cell line. The assay is classed as functional. To be noted: Homo sapiens, read-out: ED50 (the source's name).
The test system of assay [16] is H9. In words: Antiviral activity against HIV-1U455 in H9 cell line. The assay is classed as functional. The settings on record: Homo sapiens, read-out: ED50 (the source's name).
Assay [17] concerns JM1. Kind of assay: Cytotoxic activity against HIV-1QB8F in JM cell line. To be noted: Homo sapiens, read-out: CD50 (the source's name). The assay is classed as functional.
Assay [18] deals with Human immunodeficiency virus 1. In words: Antiviral activity against HIV-1CCl in PBMC cell line; Out of 21 days. In kind it is functional. The settings on record: Human immunodeficiency virus 1, PBMC, 504 h; read-out: ED50 (the source's name).
Assay [19] concerns H9. In words: Antiviral activity against HIV-1MN in H9 cell line. In kind it is functional. To be noted: Homo sapiens, read-out: ED50 (the source's name).
Assay [20] relates to JM1. Kind of assay: Antiviral activity against HIV-1 QB8F in JM cell line. In kind it is functional. To be noted: Homo sapiens, read-out: ED50 (the source's name).
For assay [21], the system named is C8166. In words: Cytotoxic activity against HIV-1 RF in […] cell line. In kind it is functional. To be noted: Homo sapiens, read-out: CD50 (the source's name).

Turning to `CO[C@H](NC(=O)C(F)(F)C(=O)C(Cc1ccc(OCc2ccccc2)cc1)NC(=O)[C@@H](NC(=O)OCc1ccccc1)C(C)C)C(C)C` (stereo not given in full), the ED50 in [1] was under 10 nM. Further, in assay [2], the IC50 is under 10 nM. The CD50 in assay [3] was found to be 8 µM.

In turn, `CC(C)C(C=O)NC(=O)C(F)(F)C(=O)C(Cc1ccc(OCc2ccccc2)cc1)NC(=O)[C@@H](NC(=O)OCc1ccccc1)C(C)C` (stereo not given in full) showed an ED50 in [1] of 18 nM. This compound came in with an IC50 in [2] of 4 nM. Further, in assay [3], the CD50 is 3.2 µM.

In assay [1], `CC(C)[C@H](NC(=O)OCc1ccccc1)C(=O)NC(Cc1ccc(OCc2ccccc2)cc1)C(=O)C(F)(F)C(=O)N[C@@H](C(=O)OC(C)(C)C)C(C)C` (stereo not given in full) returned an ED50 of 240 nM. Moreover, the IC50 in assay [2] is 6 nM. In addition, the CD50 in assay [3] turned out to be 6 µM.

On to `CC(C)[C@@H](COCc1ccccc1)NC(=O)C(F)(F)C(=O)C(Cc1ccc(OCc2ccccc2)cc1)NC(=O)[C@H](NC(=O)OCc1ccccc1)C(C)C` (stereo not given in full), for which the IC50 in assay [2] is 2000 nM.

In turn, `COCCOCO[C@H](NC(=O)C(F)(F)C(=O)C(Cc1ccc(OCc2ccccc2)cc1)NC(=O)[C@@H](NC(=O)OCc1ccccc1)C(C)C)C(C)C` (stereo not given in full) had an ED50 in assay [1] of 15 nM. This compound also had an IC50 in assay [2] of under 10 nM. This compound also came in with a CD50 in assay [3] of 3.4 µM.

In the case of `CC(C)[C@H](COCc1ccccc1)NC(=O)C(F)(F)C(=O)C(Cc1ccc(OCc2ccccc2)cc1)NC(=O)[C@H](NC(=O)OCc1ccccc1)C(C)C` (stereo not given in full), the ED50 in assay [1] was over 95000 nM. In assay [2], this compound gave an IC50 of 60 nM. Besides, the CD50 in [3] was found to be 95 µM.

Consider `CC(C)[C@H](NC(=O)OCc1ccccc1)C(=O)NC(Cc1ccc(OCc2ccccc2)cc1)C(=O)C(F)(F)C(=O)NCc1ccccc1` (stereo not given in full), for which the ED50 in [1] turned out to be 300 nM. The compound further registered a CD50 in [3] of over 100 µM.

In assay [1], `CC(C)[C@H](NC(=O)OCc1ccccc1)C(=O)NC(Cc1ccc(OCc2ccccc2)cc1)C(=O)C(F)(F)C(=O)N[C@@H](C(=O)O)C(C)C` (stereo not given in full) yielded an ED50 of 50000 nM. The same compound registered an IC50 in assay [2] of 4 nM. Further, the CD50 in assay [3] is over 100 µM.

`CC(C)(C)NC(=O)[C@@H]1C[C@@H]2CCCC[C@@H]2CN1C[C@@H](O)[C@H](Cc1ccccc1)NC(=O)[C@H](CC(N)=O)NC(=O)c1ccc2ccccc2n1` displayed an ED50 in assay [1] of 6 nM. Further, the CD50 in [3] was over 10 µM.

`COCCOCCO[C@H](NC(=O)C(F)(F)C(=O)C(Cc1ccc(OCc2ccccc2)cc1)NC(=O)[C@@H](NC(=O)OCc1ccccc1)C(C)C)C(C)C` (stereo not given in full) returned an ED50 in assay [1] of 45 nM. For the same compound, the IC50 in assay [2] was under 15 nM. In addition, the CD50 in assay [3] worked out at 2.8 µM.

`CC(C)[C@H](COCc1ccccc1)NC(=O)C(F)(F)[C@H](O)C(Cc1ccc(OCc2ccccc2)cc1)NC(=O)[C@@H](NC(=O)OCc1ccccc1)C(C)C` (stereo not given in full): the ED50 in assay [1] is over 100000 nM. This compound displayed an IC50 in assay [2] of 5 nM. Further, the CD50 in [3] is over 100 µM.

In assay [1], `CC(C)[C@H](NC(=O)OCc1ccccc1)C(=O)NC(Cc1ccc(OCc2ccccc2)cc1)C(=O)C(F)(F)C(=O)N[C@@H](COCc1ccccc1)c1ccccc1` (stereo not given in full) came in with an ED50 of 90 nM. The compound also gave an IC50 in assay [2] of 1 nM. Also, in assay [3], the CD50 is 23 µM.

With `CC(C)[C@H](CCc1ccccc1)NC(=O)C(F)(F)C(=O)C(Cc1ccc(OCc2ccccc2)cc1)NC(=O)[C@@H](NC(=O)OCc1ccccc1)C(C)C` (stereo not given in full), the ED50 in assay [1] stood at 240 nM. Also, in assay [2], the IC50 is 13 nM. Besides, in assay [3], the CD50 stood at 35 µM.

Consider `CC(C)[C@H](COCc1ccccc1)NC(=O)C(F)(F)[C@@H](O)C(Cc1ccc(OCc2ccccc2)cc1)NC(=O)[C@@H](NC(=O)OCc1ccccc1)C(C)C` (stereo not given in full), for which the ED50 in assay [1] is over 100000 nM. The compound also showed an IC50 in assay [2] of 6.6 nM. The same compound had a CD50 in [3] of over 100 µM.

Consider `CC(C)[C@H](COCc1ccccc1)NC(=O)C(F)(F)C(=O)C(Cc1ccc(OCc2ccccc2)cc1)NC(=O)[C@@H](NC(=O)OCc1ccccc1)C(C)C` (stereo not given in full), for which the EC50 is 9 nM in [4]; 38 nM in assay [5]; 30 nM in assay [6]; 49 nM in [7]; 9 nM in [8]; 33 nM in [9]. Besides, the EC50 in assay [10] was 80 nM; in assay [12], 35 nM; in [14], 27 nM; in assay [15], 28 nM; in [16], 35 nM; in assay [18], 70 nM. In addition, the EC50 in [19] worked out at 12 nM; in assay [20] it was 16 nM. Moreover, the ED50 in assay [1] came out at 27 nM. Further, the CC50 in assay [11] was 25000 nM; in assay [17], over 100000 nM; in assay [21] it was 25000 nM. In assay [13], the affinity corresponds to a Ki of 8 nM. This compound also yielded a CD50 in [3] of 100 µM.

In turn, `CC(C)CNC(=O)C(F)(F)C(=O)C(Cc1ccc(OCc2ccccc2)cc1)NC(=O)[C@@H](NC(=O)OCc1ccccc1)C(C)C` (stereo not given in full) gave an ED50 in assay [1] of over 44000 nM. In [2], this compound came in with an IC50 of 5 nM. The compound further displayed a CD50 in assay [3] of 44 µM.

`CC(C)NC(=O)C(F)(F)C(=O)C(Cc1ccc(OCc2ccccc2)cc1)NC(=O)[C@@H](NC(=O)OCc1ccccc1)C(C)C` (stereo not given in full): in assay [1], the ED50 stood at 320 nM. The IC50 in assay [2] came to 5 nM. In assay [3], this compound showed a CD50 of 6 µM.

For `COC(=O)[C@H](NC(=O)C(F)(F)C(=O)C(Cc1ccc(OCc2ccccc2)cc1)NC(=O)[C@@H](NC(=O)OCc1ccccc1)C(C)C)C(C)C` (stereo not given in full), in assay [1], the ED50 worked out at 22 nM. Further, the IC50 in assay [2] is under 10 nM. This compound registered a CD50 in [3] of 2.6 µM.

`Cc1cn([C@H]2C[C@H](N=[N+]=[N-])[C@@H](CO)O2)c(=O)[nH]c1=O`: the ED50 in assay [1] was 60 nM. Also, in assay [3], the CD50 was over 10 µM.

In [1], `CC(C)[C@H](NC(=O)OCc1ccccc1)C(=O)NC(Cc1ccc(OCc2ccccc2)cc1)C(=O)C(F)(F)C(=O)N[C@H](COCc1ccccc1)C(C)C` (stereo not given in full) registered an ED50 of 350 nM. The same compound showed an IC50 in [2] of 40 nM. This compound also came in with a CD50 in [3] of 35 µM.

In assay [1], `CC(C)C[C@H](COCc1ccccc1)NC(=O)C(F)(F)C(=O)C(Cc1ccc(OCc2ccccc2)cc1)NC(=O)[C@@H](NC(=O)OCc1ccccc1)C(C)C` (stereo not given in full) had an ED50 of 200 nM. Also, the IC50 in assay [2] amounted to 1.8 nM. The compound further yielded a CD50 in assay [3] of 15 µM.

As a reminder, the IC50 is the concentration that gives 50% inhibition. For orientation: Ki means the dissociation constant of the complex between target and ligand, obtained from inhibition or displacement. Read a high Ki as a looser hold on the target.
